From patent publication US12414959B2, “Glucose infusion solution composition” (priority 2017, dated 2025)
Converted amounts (≈) assume the structure as drawn.

Assays:
[1] = Stabilizer test (sodium bisulfite, EDTA-2Na dihydrate): color, pH and osmolality over 10 days
Method: First, 200 μl of sample F6 was added to 1800 μl of water for injection, and then stirred at room temperature, thereby preparing six samples, each consisting of 2 ml of a 10-fold-diluted sugar solution (samples a, a-1, b, b-1, c and c-1).
Next, the pH of each of the six samples was measured, and then adjusted with NaOH so as to be close to in vivo plasma pH 7.4.
A 0.1% solution of sodium bisulfite was prepared by mixing 5 mg of sodium bisulfite as stabilizer with 5 ml of water for injection, and a 0.2% solution of EDTA-2Na dihydrate was prepared by mixing 10 mg of EDTA-2Na dihydrate with 5 ml of water for injection. Then, 110 μl of each of the prepared solutions was added to some of the six 10-fold-diluted sugar solutions.

[2] = cited from earlier work
[3] = Preparation of clear sugar mixture solutions: clearness of dissolution; assay type: physicochemical; details: added in an amount of two times the solubility until colorless, water for injection, room temperature
Method: Then, each sugar was added to 2 ml of water for injection, and stirred at room temperature until a clear solution was obtained. […] In addition, a sample was prepared by doubling the amount of sample F1, and the clearness of the solution was observed (F2).

[4] = Preliminary experiment on amino acids excluded from the test; assay type: physicochemical

| SMILES | suitability as stabilizer for sample F6 [1] | Solubility (Colorless): Solubility until colorless [2] [mg/mL] | Solubility (Maximum): A maximum of solubility [2] [mg/mL] | clearness of dissolution [3] | initial osmolality variation when added [4] |
| --- | --- | --- | --- | --- | --- |
| O.O.O=C([O-])CN(CCN(CC(=O)O)CC(=O)O)CC(=O)[O-].[Na+].[Na+] [EDTA-2NA dihydrate, disodium edetate dihydrate] | not suitable | – | – | – | – |
| O=C[C@H](O)[C@@H](O)[C@@H](O)[C@H](O)CO [Galactose, galactose] | – | 100 (≈ 555 mM) | 683 | clearly dissolved | – |
| O=C[C@H](O)[C@@H](O)[C@H](O)[C@H](O)CO [Glucose, glucose] | – | 133 (≈ 738 mM) | – | clearly dissolved | – |
| C[C@H](O)[C@@H](O)[C@@H](O)[C@H](O)C=O [L-Fucose, L-fucose] | – | 50 (≈ 305 mM) | 827 | clearly dissolved | – |
| CC(=O)N[C@H]1C(O)O[C@H](CO)[C@H](O)[C@@H]1O (stereo partly drawn) [N-Acetyl galactosamine, N-acetylgalactosamine] | – | 50 (≈ 226 mM) | 100 | clearly dissolved | – |
| CC(=O)N[C@H]1C(O)O[C@H](CO)[C@@H](O)[C@@H]1O (stereo partly drawn) [N-Acetyl glucosamine, N-acetylglucosamine] | – | 50 (≈ 226 mM) | 50 | clearly dissolved | – |
| CC(=O)N[C@H]1[C@H]([C@H](O)[C@H](O)CO)OC(O)(C(=O)O)C[C@@H]1O (stereo partly drawn) [N-Acetyl neuraminic acid, N-acetylneuraminic acid] | – | 50 (≈ 162 mM) | 50 | not clearly dissolved | – |
| O=C[C@H](O)[C@@H](O)[C@H](O)CO [Xylose, xylose] | – | 50 (≈ 333 mM) | 100 | not clearly dissolved | – |
| N[C@@H](CS)C(=O)O [cysteine] | – | – | – | – | excessively high |
| O=S([O-])O.[Na+] [sodium bisulfite] | not suitable | – | – | – | – |
| N[C@@H](Cc1c[nH]c2ccccc12)C(=O)O [tryptophan] | – | – | – | – | excessively high |
